Results: patent US12435072B2, “Compounds” (Vicore Pharma AB, priority 2019, dated 2025)

Legend:
[1] = target: T1, CYP2D6 (Homo sapiens, UniProt P10635); assay: CYP inhibition in human liver microsomes, CYP2D6; type: in vitro ADME; details: probe dextromethorphan, substrate dextromethorphan, read-out: CYP2D6 Inh %
T1 construct: incubated with human liver microsomes; tissue Eurofins ITEMG232; host or cells: human liver microsomes
Protocol: (§1) The following substrates were used: CYP1A phenacetin, CYP2B6 bupropion, CYP2C8 paclitaxel and amodiaquine, CYP2C9 diclofenac, CYP2C19 omeprazole, CYP2D6 dextromethorphan, CYP3A midazolam and testosterone. At the end of the incubation, the formation of metabolite was monitored by HPLC-MS/MS as the peak area response.

[2] = target: T2, CYP2C19 (Homo sapiens, UniProt P33261); assay: CYP inhibition in human liver microsomes, CYP2C19; type: in vitro ADME; details: substrate omeprazole; for inhibition at 10 µM: probe omeprazole, read-out: CYP2C19 Inh %
T2 construct: incubated with human liver microsomes; tissue Eurofins ITEMG232; host or cells: human liver microsomes
Protocol: as §1

[3] = target: T3, human recombinant AT2 receptor (Homo sapiens, UniProt P50052); assay: Binding to AT2 receptor, radiometric scintillation assay (Eurofins); details: ligand 125I CGP 42112A, tested at 1, 10, 100 and 1000 nM
T3 construct: purchased Eurofins ITEM26
T3 sequence (P50052 1-363): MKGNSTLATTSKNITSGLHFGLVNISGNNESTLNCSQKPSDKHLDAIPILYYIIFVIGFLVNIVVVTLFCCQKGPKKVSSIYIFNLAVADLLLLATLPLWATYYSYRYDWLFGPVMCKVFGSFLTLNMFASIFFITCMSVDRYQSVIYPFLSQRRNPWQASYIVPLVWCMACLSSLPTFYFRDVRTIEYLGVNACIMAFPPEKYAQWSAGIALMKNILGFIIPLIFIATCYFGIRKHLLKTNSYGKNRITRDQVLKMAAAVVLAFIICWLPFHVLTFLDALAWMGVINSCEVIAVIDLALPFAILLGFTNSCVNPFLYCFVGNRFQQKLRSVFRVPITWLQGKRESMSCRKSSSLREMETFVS
Protocol: (§2) Compounds were evaluated for binding to the human recombinant AT2 and AT1 receptor according to Eurofins protocol ITEM26 and ITEM24 using a radiometric scintillation assay.

[4] = target: T4, CYP2C9 (Homo sapiens, UniProt P11712); assay: CYP inhibition in human liver microsomes, CYP2C9; type: in vitro ADME; design: incubated with human liver microsomes; tissue Eurofins ITEMG232; host or cells: human liver microsomes; details: substrate diclofenac; for inhibition at 10 µM: probe diclofenac, read-out: CYP2C9 Inh %
Protocol: as §1

[5] = target: T5, CYP3A4 (Homo sapiens, UniProt P08684); assay: CYP inhibition in human liver microsomes, CYP3A4 (midazolam); type: in vitro ADME; design: incubated with human liver microsomes; tissue Eurofins ITEMG232; host or cells: human liver microsomes; details: probe midazolam, substrate midazolam, read-out: CYP3A4 midazolam Inh %
Protocol: as §1

[6] = target: T6, CYP2C8 (Homo sapiens, UniProt P10632); assay: CYP inhibition in human liver microsomes, CYP2C8; type: in vitro ADME; details: probe paclitaxel and amodiaquine, substrate paclitaxel and amodiaquine, read-out: CYP2C8 Inh %
T6 construct: incubated with human liver microsomes; tissue Eurofins ITEMG232; host or cells: human liver microsomes
T6 sequence (P10632 1-490): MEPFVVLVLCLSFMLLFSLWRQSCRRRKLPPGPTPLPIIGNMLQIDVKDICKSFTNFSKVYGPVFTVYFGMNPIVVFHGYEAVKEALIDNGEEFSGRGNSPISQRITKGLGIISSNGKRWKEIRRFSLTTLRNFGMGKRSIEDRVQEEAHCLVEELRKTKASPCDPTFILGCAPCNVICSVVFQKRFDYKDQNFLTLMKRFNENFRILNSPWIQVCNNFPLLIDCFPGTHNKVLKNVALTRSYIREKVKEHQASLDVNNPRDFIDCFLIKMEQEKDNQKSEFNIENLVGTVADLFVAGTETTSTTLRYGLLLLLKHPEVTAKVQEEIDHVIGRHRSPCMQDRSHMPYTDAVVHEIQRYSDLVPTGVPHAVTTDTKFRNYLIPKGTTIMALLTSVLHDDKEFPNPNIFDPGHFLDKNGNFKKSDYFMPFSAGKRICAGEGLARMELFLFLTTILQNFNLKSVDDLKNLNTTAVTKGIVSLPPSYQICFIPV
Protocol: as §1

[7] = target: T7, human recombinant AT1 receptor (Homo sapiens, UniProt P30556); assay: Binding to AT1 receptor, radiometric scintillation assay (Eurofins); details: ligand 125I(sar1,Ile8)-AT-II, tested at 1 and 10 μM
T7 construct: purchased Eurofins ITEM24
T7 sequence (P30556 1-359): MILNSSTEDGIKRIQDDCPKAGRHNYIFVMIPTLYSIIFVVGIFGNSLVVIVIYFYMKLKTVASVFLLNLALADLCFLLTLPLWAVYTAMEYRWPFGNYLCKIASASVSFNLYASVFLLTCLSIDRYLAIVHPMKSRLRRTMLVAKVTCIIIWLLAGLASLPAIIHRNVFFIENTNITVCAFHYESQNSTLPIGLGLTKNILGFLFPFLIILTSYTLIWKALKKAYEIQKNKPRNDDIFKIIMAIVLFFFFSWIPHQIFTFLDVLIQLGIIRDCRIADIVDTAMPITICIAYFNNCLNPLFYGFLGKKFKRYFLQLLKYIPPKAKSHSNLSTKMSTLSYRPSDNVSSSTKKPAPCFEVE
Protocol: as §2

[8] = system: CYP3A4&5; assay: CYP inhibition in human liver microsomes, CYP3A4&5 (testosterone); type: in vitro ADME; details: probe testosterone, substrate testosterone, read-out: CYP3A4&5 testosterone Inh %
Protocol: as §1

[9] = target: T8, CYP2B6 (Homo sapiens, UniProt P20813); assay: CYP inhibition in human liver microsomes, CYP2B6; type: in vitro ADME; details: probe bupropion, substrate bupropion, read-out: CYP2B6 Inh %
T8 construct: incubated with human liver microsomes; tissue Eurofins ITEMG232; host or cells: human liver microsomes
T8 sequence (P20813 1-491): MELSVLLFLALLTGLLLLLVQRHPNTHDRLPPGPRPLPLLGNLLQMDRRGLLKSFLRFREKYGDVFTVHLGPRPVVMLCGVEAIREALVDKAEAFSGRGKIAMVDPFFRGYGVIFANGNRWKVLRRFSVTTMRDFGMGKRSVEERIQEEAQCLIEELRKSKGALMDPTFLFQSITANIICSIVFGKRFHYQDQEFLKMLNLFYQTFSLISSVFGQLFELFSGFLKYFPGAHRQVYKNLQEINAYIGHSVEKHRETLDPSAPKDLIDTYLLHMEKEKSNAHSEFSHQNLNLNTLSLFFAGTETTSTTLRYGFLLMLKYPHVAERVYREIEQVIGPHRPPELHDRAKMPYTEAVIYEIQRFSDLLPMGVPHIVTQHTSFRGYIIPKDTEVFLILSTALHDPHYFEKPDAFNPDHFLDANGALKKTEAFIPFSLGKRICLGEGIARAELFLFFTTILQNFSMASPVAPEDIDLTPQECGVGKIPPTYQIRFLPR
Protocol: as §1

[10] = target: T9, CYP1A (Homo sapiens, UniProt P05177); assay: CYP inhibition in human liver microsomes, CYP1A; type: in vitro ADME; details: probe phenacetin, substrate phenacetin, read-out: CYP1A Inh %
T9 construct: incubated with human liver microsomes; tissue Eurofins ITEMG232; host or cells: human liver microsomes
T9 sequence (P05177 1-516): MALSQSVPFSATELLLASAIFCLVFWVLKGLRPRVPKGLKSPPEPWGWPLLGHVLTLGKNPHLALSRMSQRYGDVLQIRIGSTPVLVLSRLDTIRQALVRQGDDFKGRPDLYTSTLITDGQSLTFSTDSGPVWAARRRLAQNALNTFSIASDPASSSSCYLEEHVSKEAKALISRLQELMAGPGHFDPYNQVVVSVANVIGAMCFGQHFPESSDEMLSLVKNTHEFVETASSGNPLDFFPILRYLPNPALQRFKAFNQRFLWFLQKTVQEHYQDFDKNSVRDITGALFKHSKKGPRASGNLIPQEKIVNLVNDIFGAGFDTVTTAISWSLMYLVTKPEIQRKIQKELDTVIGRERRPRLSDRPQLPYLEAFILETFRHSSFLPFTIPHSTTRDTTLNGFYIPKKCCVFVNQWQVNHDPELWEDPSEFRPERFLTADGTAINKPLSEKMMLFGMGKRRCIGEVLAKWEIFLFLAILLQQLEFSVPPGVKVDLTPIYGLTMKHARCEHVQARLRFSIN
Protocol: as §1

[11] = target: T5, CYP3A4; assay: CYP inhibition found during development of C21, CYP 3A4; type: in vitro ADME; details: statement in background
[12] = target: T4, CYP2C9; assay: CYP inhibition found during development of C21, CYP 2C9; type: in vitro ADME; details: statement in background
[13] = Metabolic hydrolysis found during development of C21; type: in vitro ADME; details: statement in background

T4 sequence (P11712 whole entry): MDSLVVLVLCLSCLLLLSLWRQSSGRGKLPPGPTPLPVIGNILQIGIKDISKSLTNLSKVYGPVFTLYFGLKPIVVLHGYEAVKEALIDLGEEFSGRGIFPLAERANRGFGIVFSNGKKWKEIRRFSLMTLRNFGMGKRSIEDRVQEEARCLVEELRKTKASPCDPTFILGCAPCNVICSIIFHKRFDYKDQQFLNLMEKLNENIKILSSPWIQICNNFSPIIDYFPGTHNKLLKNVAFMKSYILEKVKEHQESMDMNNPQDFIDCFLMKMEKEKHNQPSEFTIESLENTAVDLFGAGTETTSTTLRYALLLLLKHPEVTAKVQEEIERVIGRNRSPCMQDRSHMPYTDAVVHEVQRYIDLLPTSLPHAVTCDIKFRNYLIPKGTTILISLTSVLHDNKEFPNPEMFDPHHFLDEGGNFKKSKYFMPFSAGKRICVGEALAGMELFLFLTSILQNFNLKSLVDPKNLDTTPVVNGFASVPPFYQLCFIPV
T5 sequence (P08684 whole entry): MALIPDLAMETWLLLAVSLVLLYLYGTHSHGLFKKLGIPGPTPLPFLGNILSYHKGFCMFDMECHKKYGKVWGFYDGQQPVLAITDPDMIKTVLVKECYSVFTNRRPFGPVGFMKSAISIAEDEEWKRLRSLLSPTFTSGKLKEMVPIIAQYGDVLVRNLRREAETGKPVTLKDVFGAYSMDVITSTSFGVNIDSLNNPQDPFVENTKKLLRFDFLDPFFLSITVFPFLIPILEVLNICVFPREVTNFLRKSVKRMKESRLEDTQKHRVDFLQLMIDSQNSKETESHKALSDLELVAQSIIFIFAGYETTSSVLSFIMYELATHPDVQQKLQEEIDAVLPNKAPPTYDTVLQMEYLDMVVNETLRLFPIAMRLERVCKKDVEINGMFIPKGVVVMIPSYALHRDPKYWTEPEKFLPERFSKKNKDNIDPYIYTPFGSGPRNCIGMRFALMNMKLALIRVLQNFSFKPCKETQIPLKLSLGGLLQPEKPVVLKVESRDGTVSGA
T2 sequence (P33261 whole entry): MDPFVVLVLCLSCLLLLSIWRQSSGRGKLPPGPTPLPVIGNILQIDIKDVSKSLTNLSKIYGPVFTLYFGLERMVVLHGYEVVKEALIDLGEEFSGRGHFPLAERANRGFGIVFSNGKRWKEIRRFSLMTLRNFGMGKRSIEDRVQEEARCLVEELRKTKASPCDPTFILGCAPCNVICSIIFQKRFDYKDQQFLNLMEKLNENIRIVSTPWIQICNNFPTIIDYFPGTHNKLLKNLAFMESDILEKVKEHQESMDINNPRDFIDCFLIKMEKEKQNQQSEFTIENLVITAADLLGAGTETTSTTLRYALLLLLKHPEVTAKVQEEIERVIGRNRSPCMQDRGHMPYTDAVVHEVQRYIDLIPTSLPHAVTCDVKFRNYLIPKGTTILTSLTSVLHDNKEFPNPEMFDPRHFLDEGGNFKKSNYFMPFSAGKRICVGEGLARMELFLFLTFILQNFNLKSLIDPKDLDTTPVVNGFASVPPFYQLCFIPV
T1 sequence (P10635 whole entry): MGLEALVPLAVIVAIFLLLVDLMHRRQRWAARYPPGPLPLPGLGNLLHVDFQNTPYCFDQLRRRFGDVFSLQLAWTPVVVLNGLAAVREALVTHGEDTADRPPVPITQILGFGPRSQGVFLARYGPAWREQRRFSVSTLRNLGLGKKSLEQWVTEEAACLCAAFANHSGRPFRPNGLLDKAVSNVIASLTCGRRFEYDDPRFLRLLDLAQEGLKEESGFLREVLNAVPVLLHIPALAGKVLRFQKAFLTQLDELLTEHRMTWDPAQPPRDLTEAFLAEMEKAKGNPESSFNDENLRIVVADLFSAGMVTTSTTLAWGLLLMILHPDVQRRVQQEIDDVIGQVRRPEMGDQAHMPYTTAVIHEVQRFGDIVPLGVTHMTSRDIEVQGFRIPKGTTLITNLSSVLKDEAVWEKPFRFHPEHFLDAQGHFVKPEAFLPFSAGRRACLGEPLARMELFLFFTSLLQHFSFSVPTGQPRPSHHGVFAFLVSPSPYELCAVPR

| SMILES | inhibition at 10 µM [1] [%] | inhibition at 10 µM [2] [%] | IC50 [3] [µM] | inhibition at 10 µM [4] [%] | inhibition at 10 µM [5] [%] | inhibition at 10 µM [6] [%] | IC50 [7] [µM] | inhibition at 10 µM [8] [%] | inhibition at 10 µM [9] [%] | inhibition at 10 µM [10] [%] | inhibition of CYP 3A4 [11] | CYP2C19 Inh % ([2]; 10 μM) [%] | CYP2C9 Inh % ([4]; 10 μM) [%] | inhibition of CYP 2C9 [12] | metabolic hydrolysis [13] |
| --- | --- | --- | --- | --- | --- | --- | --- | --- | --- | --- | --- | --- | --- | --- | --- |
| Cc1nccn1Cc1ccc(-c2cc(CC(C)C)sc2S(=O)(=O)NC(=O)NCCC(F)(F)F)nc1 [Example 19, 3-(5-Isobutyl-3-{5-[(2-methyl-1H-imidazol-1-yl)methyl]-2-pyridyl}-2-thienylsulfonyl)-1-(3,3,3-trifluoropropyl)urea] | – | – | 0.127 | – | – | – | 83 | – | – | – | – | – | – | – | – |
| Cc1nccn1Cc1ncc(-c2cc(CC(C)C)sc2S(=O)(=O)NC(=O)NCc2ccccn2)cn1 [Example 22, 3-(5-Isobutyl-3-{2-[(2-methyl-1H-imidazol-1-yl)methyl]-5-pyrimidinyl}-2-thienylsulfonyl)-1-[(2-pyridyl)methyl]urea] | – | – | 0.0169 | – | – | – | 51 | – | – | – | – | – | – | – | – |
| CC(C)Cc1cc(-c2ccc(Cn3ccnc3C(C)C)c(F)c2)c(S(=O)(=O)NC(=O)NCCCC(F)(F)F)s1 [Example 42, 1-{[3-(3-fluoro-4-{[2-(propan-2-yl)-1H-imidazol-1-yl]methyl}phenyl)-5-(2-methylpropyl)thiophen-2-yl]sulfonyl}-3-(4,4,4-trifluorobutyl)urea trifluoroacetic acid] | – | – | 0.0029 | – | – | – | 5 | – | – | – | – | – | – | – | – |
| CCCCOC(=O)NS(=O)(=O)c1sc(CC(C)C)cc1-c1ccc(Cn2ccnc2)cc1 [Example C21, N-butyloxycarbonyl-3-(4-imidazol-1-ylmethylphenyl)-5-isobutylthiophene-2-sulfon-amide] | – | – | – | – | – | – | – | – | – | – | potent inhibitor | 96.0 | 99.0 | potent inhibitor | rapidly hydrolysed to an inactive sulfonamide metabolite |

Continued by falling IC50 [3], values first:

| inhibition at 10 µM [1] [%] | inhibition at 10 µM [2] [%] | IC50 [3] [µM] | inhibition at 10 µM [4] [%] | inhibition at 10 µM [5] [%] | inhibition at 10 µM [6] [%] | IC50 [7] [µM] | inhibition at 10 µM [8] [%] | inhibition at 10 µM [9] [%] | inhibition at 10 µM [10] [%] | inhibition of CYP 3A4 [11] | CYP2C19 Inh % ([2]; 10 μM) [%] | CYP2C9 Inh % ([4]; 10 μM) [%] | inhibition of CYP 2C9 [12] | SMILES | metabolic hydrolysis [13] |
| --- | --- | --- | --- | --- | --- | --- | --- | --- | --- | --- | --- | --- | --- | --- | --- |
| – | – | 0.357 | – | – | – | 16 | – | – | – | – | – | – | – | Cc1nccn1Cc1ccc(-c2cc(CC(C)C)sc2S(=O)(=O)NC(=O)NCc2cc(F)cc(F)c2)nc1 [Example 23, 1-[(3,5-Difluorophenyl)methyl]-3-(5-isobutyl-3-{5-[(2-methyl-1H-imidazol-1-yl)methyl]-2-pyridyl}-2-thienylsulfonyl)urea] | – |
| 44 | 53 | 0.119 | 29 | 22 | 34 | 18 | 17 | 14 | 5 | – | – | – | – | Cc1cn(Cc2ccc(-c3cc(CC(C)C)sc3S(=O)(=O)NC(=O)NCc3ccccn3)cc2)c(C)n1 [Example 11, 3-(3-{p-[(2,4-Dimethyl-1H-imidazol-1-yl)methyl]phenyl}-5-isobutyl-2-thienylsulfonyl)-1-[(2-pyridyl)methyl]urea] | – |
| 31 | 61 | 0.0906 | 50 | 25 | 48 | 6 | 29 | 15 | -5 | – | – | – | – | Cc1cn(Cc2ccc(-c3cc(CC(C)C)sc3S(=O)(=O)NC(=O)NCc3ccccc3)cc2)c(C)n1 [Example 10, 1-Benzyl-3-(3-{p-[(2,4-dimethyl-1H-imidazol-1-yl)methyl]phenyl}-5-isobutyl-2-thienylsulfonyl)urea] | – |
| 22 | 54 | 0.0095 | 48 | 65 | 83 | 58 | 18 | 20 | 29 | – | – | – | – | Cc1nccn1Cc1ccc(-c2cc(CC(C)C)sc2S(=O)(=O)NC(=O)N(C)Cc2ccccn2)cc1F [Example 17, 3-(3-{3-Fluoro-4-[(2-methyl-1H-imidazol-1-yl)methyl]phenyl}-5-isobutyl-2-thienylsulfonyl)-1-methyl-1-[(2-pyridyl)methyl]urea] | – |
| 88 | 91 | 0.0074 | 79 | 91 | 65 | 57 | 58 | 88 | 23 | – | – | – | – | Cc1nccn1Cc1ccc(-c2cc(CC(C)C)sc2S(=O)(=O)NC(=O)NCCc2c[nH]cn2)cc1F [Example 16, 1-(3-{3-Fluoro-4-[(2-methyl-1H-imidazol-1-yl)methyl]phenyl}-5-isobutyl-2-thienylsulfonyl)-3-[2-(1H-imidazol-4-yl)ethyl]urea] | – |
